In data set [1] the test system is OSR1-GFP reporter iPS cells. Briefly: Induction of differentiation into intermediate mesoderm cells (novel induction method 1), flow cytometry using OSR1 (GFP) expression. Format: cell-based, human. To be noted: novel induction method 1: 2 days 3 micromolar CHIR99021 + 10 micromolar Y-27632, then 8 days 1 micromolar retinoic acid derivative. How it is done:
(§1) Human iPS cells (201B7) provided by Dr. Yamanaka at Kyoto University were cultured by the known method (Takahashi, K. et al., Cell 131: 861-872). Subsequently, a GFP-PGK-Neo cassette was inserted into a site downstream of the OSR1 initiation codon of a BAC clone (RP11-458J18) (BACPAC RESOURCES) using pRed/ET (Gene Bridges GmbH), so as to prepare a OSR1-GFP BAC transgene. The resulting modified BAC clone was introduced into the human iPS cell and the OSR1-GFP reporter iPS cell line expressing GFP in conjunction with the expression of endogenous OSR1 was established.
(§2) The above OSR1-GFP reporter iPS cells were cultured to confluence on a 10-cm dish using SNL cells as feeder cells (McMahon, A. P. and Bradley, A., 1990, Cell 62; 1073-1085). A CTK solution was added to the cells for dissociation, the feeder cells were removed, and the iPS cells were dispersed into single cells with the addition of Accutase.
Subsequently, the iPS cells were suspended in a DMEM/F12 medium containing Glutamax, 2% FBS, and PenStrep, and 10 micromolar Y-27632 and 3 micromolar CHIR99021 were added thereto. Subsequently, the cell suspension was transferred to a dish coated with 0.1% gelatin, and culture was conducted for 2 days. […]
After the cell culture had been conducted for 8 days, the cells were analyzed by flow cytometry (FACS) using OSR1 expression as an indicator.
A general note: A flow cytometer gives signals particle by particle.

The subject of data set [2] is intranuclear receptor of retinoic acid (RAR). The experiment in a line: Activity through retinoic acid pathway compared with ATRA. To be noted: stated as effect of the invention, no test described.
The nature of data set [3]: Cytotoxicity compared with ATRA. The data set is classed as cell-based. To be noted: stated as effect of the invention, no test described.
The subject of data set [4] is iPS cell clones (201B6, 253G1, 263G4 and 585A1) and ES cell clone (KhES1, KhES3 and H9). The experiment in a line: Level of OSR1 expression after differentiation from each iPS cell clone or ES clone (novel induction method 3). The data set is classed as cell-based, human. An excerpt:
White bar indicates the result using AM580. Black bar indicates the result using TTNPB. Grey bar indicate the result of conventional method without AM580 and TTNPB.

Data set [5] has as its system OSR1-GFP reporter iPS cells. The experiment in a line: Induction of differentiation into intermediate mesoderm cells (novel induction methods 2 and 3), flow cytometry using OSR1 (GFP) expression; time course. To be noted: for time at which growth of OSR1 positive cells had plateau after the medium change: cell numbers measured 3, 5, 8 or 12 days after change to medium with 1 micromolar retinoic acid derivative. The data set is classed as cell-based, human. How it is done: as §1, §2
Subsequently, the iPS cells were suspended in a DMEM/F12 medium containing Glutamax, 2% FBS, and PenStrep, and a combination of (1) 10 micromolar Y-27632 (ROCK inhibitor), 3 micromolar CHIR99021, and 1 micromolar AM580 or (2) 10 micromolar Y-27632 (ROCK inhibitor), 3 micromolar CHIR99021, and 1 micromolar TTNPB was added thereto. Subsequently, the cell suspension was transferred to a dish coated with 0.1% gelatin, and culture was conducted for 2 days.
Thereafter, the medium was removed, the culture product was washed in PBS, and the iPS cells were then cultured for an additional 8 days (novel induction method 2) or 3 days (novel induction method 3) in a medium prepared by adding 1 micromolar AM580 or 1 micromolar TTNPB to a DMEM/F12 medium containing 2-mercaptoethanol, Glutamax, 10% KOCKOUT SR, 0.1 mM MEM NEAA, and PenStrep. During culture, the medium was exchanged with fresh medium once every 3 days in the case of the novel induction method 2.
After the cell culture had been conducted for 8 or 3 days, the cells were analyzed by flow cytometry (FACS) using OSR1 expression as an indicator.
Next, the length of time from medium change was studied. Briefly, number of OSR1 positive cells and total cells were measured at 3 days (novel induction method 3), 5 days, 8 days (novel induction method 2) or 12 days after the medium was changed to a medium prepared by adding 1 micromolar AM580 or 1 micromolar TTNPB to a DMEM/F12 medium containing 2-mercaptoethanol, Glutamax, 10% KOCKOUT SR, 0.1 mM MEM NEAA, and PenStrep (FIG. 4). The growth of OSR1 positive cells had plateau at 8 day after the medium change.

In data set [6] the test system is OSR1-GFP reporter iPS cells. The experiment in a line: Organ culture of OSR1 (GFP) positive cells with mouse metanephric cells, immunostaining. The data set is classed as cell-based, human. To be noted: novel induction method 3 with 1 micromolar TTNPB, then mixed with E11.5 mouse metanephric cells, 7 days floating culture. How it is done: The above OSR1-GFP reporter iPS cells were dissociated into single cells in a manner similar to Example 2. Subsequently, the iPS cells were suspended in a DMEM/F12 medium containing Glutamax, 2% FBS, and PenStrep, and a combination of 10 micromolar Y-27632, 3 micromolar CHIR99021, and 1 micromolar TTNPB was added thereto. Subsequently, the cell suspension was transferred to a dish coated with 0.1% gelatin, and culture was conducted for 2 days. Thereafter, the medium was removed, the culture product was washed in PBS, and the iPS cells were then cultured for an additional 3 days (novel induction method 3) in a medium prepared by adding 1 micromolar TTNPB to a DMEM/F12 medium containing 2-mercaptoethanol, Glutamax, 10% KOCKOUT SR, 0.1 mM MEM NEAA, and PenStrep. After isolating GFP positive cells from obtained cells with flow cytometer, 1×10^4 GFP positive cells were mixed with 1×10^5 mouse metanephric cells obtained from E11.5 mouse embryo on a low cell adhesion plate (PrimeSurface). The next day, cell sphere was transferred on the Isopore™ Membrane Filters (Merck Millipore) floated on Improve MEM medium containing 10 micromolar Y-27632, 10% FBS and PenStrep. During culture, the medium was exchanged with fresh medium once every 3 days. Obtained cells were analyzed with immunostaining at 7 days after floating culture (FIG. 9).

Data set [7] has as its system OSR1-GFP reporter iPS cells. The experiment in a line: Long term culture of OSR1 (GFP) positive cells, RT-PCR and immunostaining. The data set is classed as cell-based, human. Conditions: novel induction method 3 with 1 micromolar TTNPB, then 8 days with 100 ng/ml BMP7, 100 ng/ml Wnt3a on Matrigel. How it is done:
The above OSR1-GFP reporter iPS cells were dissociated into single cells in a manner similar to Example 2. Subsequently, the iPS cells were suspended in a DMEM/F12 medium containing Glutamax, 2% FBS, and PenStrep, and a combination of 10 micromolar Y-27632, 3 micromolar CHIR99021, and 1 micromolar TTNPB was added thereto. Subsequently, the cell suspension was transferred to a dish coated with 0.1% gelatin, and culture was conducted for 2 days. Thereafter, the medium was removed, the culture product was washed in PBS, and the iPS cells were then cultured for an additional 3 days (novel induction method 3) in a medium prepared by adding 1 micromolar TTNPB to a DMEM/F12 medium containing 2-mercaptoethanol, Glutamax, 10% KOCKOUT SR, 0.1 mM MEM NEAA, and PenStrep. After isolating GFP positive cells from obtained cells with flow cytometer, the GFP positive cells were transferred to a dish coated with Matrigel (BD), and cultured in DMEM/F12 medium containing 10 micromolar Y-27632, 100 ng/ml BMP7, 100 ng/ml Wnt3a, 2-mercaptoethanol, Glutamax, 10% KOCKOUT SR, 0.1 mM MEM NEAA, and PenStrep for 8 days. During culture, the medium was exchanged with fresh medium once every 3 days. Obtained cells were analyzed with RT-PCR (FIG. 7A) and immunostaining (FIG. 7B). […]

Data set [8] deals with OSR1-GFP reporter iPS cells. Briefly: Suspention culture of OSR1 (GFP) positive cells to form sphere, immunostaining. Format: cell-based, human. To be noted: novel induction method 3 with 1 micromolar TTNPB, then suspention culture on low cell adhesion plate. How it is done:
The above OSR1-GFP reporter iPS cells were dispersed into single cells in a manner similar to Example 2. Subsequently, the iPS cells were suspended in a DMEM/F12 medium containing Glutamax, 2% FBS, and PenStrep, and a combination of 10 micromolar Y-27632, 3 micromolar CHIR99021, and 1 micromolar TTNPB was added thereto. Subsequently, the cell suspension was transferred to a dish coated with 0.1% gelatin, and culture was conducted for 2 days. Thereafter, the medium was removed, the culture product was washed in PBS, and the iPS cells were then cultured for an additional 3 days (novel induction method 3) in a medium prepared by adding 1 micromolar TTNPB to a DMEM/F12 medium containing 2-mercaptoethanol, Glutamax, 10% KOCKOUT SR, 0.1 mM MEM NEAA, and PenStrep. After isolating GFP positive cells from obtained cells with flow cytometer, 1×10^5 GFP positive cells were transferred to a low cell adhesion plate (PrimeSurface, Sumitomo Bakelite co.), and cultured in DMEM/F12 medium containing 10 micromolar Y-27632, 2-mercaptoethanol, Glutamax, 10% KOCKOUT SR, 0.1 mM MEM NEAA, and PenStrep in suspention to form cell sphere. During culture, the medium was exchanged with fresh medium once every 3 days.
Obtained cells were analyzed with immunostaining (FIG. 8).

Where [9] appears, read: novel induction method 2: 2 days 3 micromolar CHIR99021 + 10 micromolar Y-27632 + 1 micromolar retinoic acid derivative, then 8 days 1 micromolar retinoic acid derivative.
The mark [10] stands for this setting: novel induction method 3: 2 days 3 micromolar CHIR99021 + 10 micromolar Y-27632 + 1 micromolar retinoic acid derivative, then 3 days 1 micromolar retinoic acid derivative.

`CC1(C)CCC(C)(C)c2cc(C(=O)Nc3ccc(C(=O)O)cc3)ccc21` [AM580, 4-[[(5,6,7,8-tetrahydro-5,5,8,8-tetramethyl-2-naphthalenyl)carbonyl]amino]-benzoic acid]: the “induction of OSR1-positive cells (FACS)” value in data set [1], in data set [5] (setting [9]) and in data set [5] (setting [10]) was “OSR1-positive cells were successfully induced” in each case. Further, the “activity relative to all-trans retinoic acid (ATRA)” value in data set [2] is “higher than that of all-trans retinoic acid (ATRA)”. For the same compound, in data set [3], the “cytotoxicity relative to ATRA” value was “lower cytotoxicity compared with ATRA”. The “differentiation of further iPS and ES cell clones into intermediate mesoderm cells” value in data set [4] is recorded as “could be differentiated into intermediate mesoderm cells”. Besides, the “time at which growth of OSR1 positive cells had plateau after the medium change” value in data set [5] came to 8 days.
Regarding `C/C(=C\c1ccc(C(=O)O)cc1)c1ccc2c(c1)C(C)(C)CCC2(C)C` [TTNPB, 4-[(1E)-2-(5,6,7,8-tetrahydro-5,5,8,8-tetramethyl-2-naphthalenyl)-1-propen-1-yl]-benzoic acid], in data set [6], the “luminal structure formation from OSR1 positive cells by mixed culture with organ” value is “luminal structure could be constructed”. The “induction of OSR1-positive cells (FACS)” value in data set [1], in data set [5] (setting [9]) and in data set [5] (setting [10]) was “OSR1-positive cells were successfully induced” in each case. In data set [7], the “further differentiation of obtained OSR1 positive cells” value is “could be further differentiated into renal precursor cells”. In data set [2], the “activity relative to all-trans retinoic acid (ATRA)” value is “higher than that of all-trans retinoic acid (ATRA)”. Also, in data set [8], the “luminal structure formation from OSR1 positive cells by forming sphere” value is listed as “luminal structure could be constructed”. The “cytotoxicity relative to ATRA” value in data set [3] is reported as “lower cytotoxicity compared with ATRA”. The “differentiation of further iPS and ES cell clones into intermediate mesoderm cells” value in data set [4] was “could be differentiated into intermediate mesoderm cells”. In data set [5], the “time at which growth of OSR1 positive cells had plateau after the medium change” value came out at 8 days.

For the origin of these results see patent US9890357B2, “Method for inducing differentiation of human pluripotent stem cells into intermediate mesoderm cells” (Kyoto University, priority 2011, dated 2018).
